Assay results: patent US20220306695A1, “COMPSTATIN ANALOGUES AND THEIR MEDICAL USES” (priority 2019, published 2022)
Starred links: 1 amine or outer side, 2 acyl side, 3 side chain; linkers in the order of their positions; H or OH if unused. Positions of bridges follow the written chain, without caps; N, C: chain ends. Non-standard residues stand in square brackets, D forms with d. Residues, ends and D or L forms follow the SMILES beside them. Groups on a side chain read outwards from the residue. *: point of attachment. C20 diacid = O=C(O)CCCCCCCCCCCCCCCCCCC(=O)*; Trp(1-Me) = Cn1cc(C[C@H](N)C(=O)O)c2ccccc21; Abu(4-yl) = O=C([C@H](CC[*:3])N[*:1])[*:2]; C18 diacid = O=C(O)CCCCCCCCCCCCCCCCC(=O)*; γGlu = O=C(O)[C@H](CCC(=O)[*:2])N[*:1]; AEEA = NCCOCCOCC(=O)O; Sar = CNCC(=O)O

test system: classical complement pathway; assay: In vitro haemolysis assay (inhibition of classical complement pathway); type: cell-based, human; settings: Table 3; human serum, sensitized sheep red blood cells; read-out: IC50[nM], in vitro analysis of inhibition of hemolysis
In short: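 Serially diluted compound (9 points) was preincubated 15 min at room temperature with diluted human serum, titrated per batch to give 70-90% maximal haemolysis, in Tris/casein buffer pH 7.4 with Mg2+/Ca2+. Antibody-sensitized sheep erythrocytes were then added for 30 min at 37° C, and the reaction was stopped with EDTA. Haemolysis was read at A405, with IC50 from 4PL fit.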

`CC[C@H](C)[C@@H]1NC(=O)[C@@H](NC(=O)[C@H](Cc2ccccc2)NC(=O)[C@H](CCC(=O)O)NC(=O)[C@H](CO)NC(C)=O)CCSC[C@@H](C(=O)N(C)CC(=O)N[C@@H](CCC(=O)O)C(=O)NCC(=O)N[C@@H](CCC(=O)O)C(=O)NCCOCCOCC(=O)NCCOCCOCC(=O)N[C@@H](CCCCNC(=O)CC[C@H](NC(=O)CNC(=O)CC[C@H](NC(=O)CCCCCCCCCCCCCCCCC(=O)O)C(=O)O)C(=O)O)C(N)=O)NC(=O)[C@H](CCCNC(=N)N)NC(=O)[C@H](Cc2c[nH]cn2)NC(=O)[C@H](CCC(=O)O)NC(=O)CNC(=O)[C@H](Cc2c[nH]c3ccccc23)NC(=O)[C@H](CCC(=O)O)NC(=O)[C@H](CCC(N)=O)NC(=O)[C@H](Cc2cn(C)c3ccccc23)NC1=O` [Compound 167] (Ac-SEF[Abu(4-yl)]I[Trp(1-Me)]QEWGEHRC[Sar]EGE[AEEA][AEEA]K([γGlu-Gly-γGlu-C18 diacid])-NH2; thioether 4-14) and `CC[C@H](C)[C@@H]1NC(=O)[C@@H](NC(=O)[C@H](Cc2ccccc2)NC(=O)[C@H](CCC(=O)O)NC(=O)[C@H](CO)NC(C)=O)CSSC[C@@H](C(=O)N[C@H](C(=O)N[C@@H](CCC(=O)O)C(=O)N[C@@H](CCCCN)C(=O)N[C@@H](CCC(=O)NCC(=O)NCC(=O)NCC(=O)N[C@@H](CCCCNC(=O)CC[C@H](NC(=O)CNC(=O)CC[C@H](NC(=O)CCCCCCCCCCCCCCCCC(=O)O)C(=O)O)C(=O)O)C(N)=O)C(=O)O)[C@@H](C)O)NC(=O)[C@H](CCCNC(=N)N)NC(=O)[C@H](Cc2c[nH]cn2)NC(=O)[C@H](CCC(=O)O)NC(=O)CNC(=O)[C@H](Cc2c[nH]c3ccccc23)NC(=O)[C@H](CC(=O)O)NC(=O)[C@H](CCC(N)=O)NC(=O)[C@H](Cc2cn(C)c3ccccc23)NC1=O` [Compound 133] (Ac-SEFCI[Trp(1-Me)]QDWGEHRCTEK[γGlu]GGGK([γGlu-Gly-γGlu-C18 diacid])-NH2; disulfide 4-14) cannot be ordered by IC50: under 500 nM for the first, under 100 nM for the second.

`CC[C@H](C)[C@H](NC(C)=O)C(=O)N[C@H]1CSSC[C@@H](C(=O)N[C@@H](CCC(=O)O)C(N)=O)NC(=O)[C@H](CCCNC(=N)N)NC(=O)[C@H](Cc2c[nH]cn2)NC(=O)[C@H](C)NC(=O)CNC(=O)[C@H](Cc2c[nH]c3ccccc23)NC(=O)[C@H](CC(=O)O)NC(=O)[C@H](CCC(N)=O)NC(=O)[C@H](Cc2c[nH]c3ccccc23)NC(=O)[C@H]([C@@H](C)CC)NC1=O` [Compound 12] (Ac-ICIWQDWGAHRCE-NH2; disulfide 2-12) and `CC[C@H](C)[C@H](NC(C)=O)C(=O)N[C@H]1CSSC[C@@H](C(=O)N[C@H](C(N)=O)[C@@H](C)O)NC(=O)[C@H](CCCNC(=N)N)NC(=O)[C@H](Cc2c[nH]cn2)NC(=O)[C@H](CCC(=O)O)NC(=O)CNC(=O)[C@H](Cc2c[nH]c3ccccc23)NC(=O)[C@H](CCCCN)NC(=O)[C@H](CCC(N)=O)NC(=O)[C@H](Cc2c[nH]c3ccccc23)NC(=O)[C@H]([C@@H](C)CC)NC1=O` [Compound 7] (Ac-ICIWQKWGEHRCT-NH2; disulfide 2-12) cannot be ordered by IC50: under 100 nM for the first, under 1000 nM for the second.

For `CC[C@H](C)[C@H](NC(C)=O)C(=O)N[C@H]1CSSC[C@@H](C(=O)N[C@H](C(=O)N[C@@H](CCC(=O)O)C(=O)NCC(=O)N[C@@H](CCCCNC(=O)COCCOCCNC(=O)COCCOCCNC(=O)CC[C@H](NC(=O)CCCCCCCCCCCCCCCCCCC(=O)O)C(=O)O)C(N)=O)[C@@H](C)O)NC(=O)[C@H](CCCNC(=N)N)NC(=O)[C@H](Cc2c[nH]cn2)NC(=O)[C@H](CCC(=O)O)NC(=O)CNC(=O)[C@H](Cc2c[nH]c3ccccc23)NC(=O)[C@H](CC(=O)O)NC(=O)[C@H](CCC(N)=O)NC(=O)[C@H](Cc2c[nH]c3ccccc23)NC(=O)[C@H]([C@@H](C)CC)NC1=O` [Compound 98] (Ac-ICIWQDWGEHRCTEGK([AEEA-AEEA-γGlu-C20 diacid])-NH2; disulfide 2-12), the IC50 was under 500 nM.
